Values joined by “and” are separate entries in the source; they are usually repeats but may differ in a detail not shown here. Equal values may be shown once.
Assays:
[1] = test system: skin blemishes caused by cellulite and localised adiposity; test: Thigh circumference measured with a measuring tape, dermatological test of the cosmetic gel; format: in vivo, female volunteers; design: RIGHT THIGH CIRCUMFERENCE 1/3 T0 / RIGHT THIGH CIRCUMFERENCE 3/3 T15 / RIGHT THIGH CIRCUMFERENCE 3/3 T30 / RIGHT THIGH CIRCUMFERENCE 3/3 T60 / RIGHT THIGH CIRCUMFERENCE 1/3 T15 / RIGHT THIGH CIRCUMFERENCE 1/3 T60 / RIGHT THIGH CIRCUMFERENCE 2/3 T0 / RIGHT THIGH CIRCUMFERENCE 2/3 T15 / RIGHT THIGH CIRCUMFERENCE 2/3 T30 / RIGHT THIGH CIRCUMFERENCE 2/3 T60 / RIGHT THIGH CIRCUMFERENCE 3/3 T0 / LEFT THIGH CIRCUMFERENCE 3/3 T60 / LEFT THIGH CIRCUMFERENCE 1/3 T15 / LEFT THIGH CIRCUMFERENCE 1/3 T30 / LEFT THIGH CIRCUMFERENCE 1/3 T60 / LEFT THIGH CIRCUMFERENCE 2/3 T0 / LEFT THIGH CIRCUMFERENCE 2/3 T15 / LEFT THIGH CIRCUMFERENCE 3/3 T0: unit not given beside the values; conditions: individual volunteer
Description: (§1) A dermatological test was carried out on 25 female volunteers between 18 and 65 years of age, with the backing of the Department of Physiological and Pharmacological Sciences of the university of Pavia. The investigation aimed to check the modification of three anatomical-physiological parameters, qualifying the unaesthetic-functional aspect connected to the manifestation of so-called cellulite and subcutaneous hypertriglyceridaemia: measurement of the skin folds, measurement of the circumference of the thighs, thermographic skin measurement.
(§2) The test stretched out over 60 days with the continual daily application of the aforementioned preparation of cosmetic gel. The measurements were carried out after 15, 30 and 60 days. The detail of the test protocol and of the results obtained is shown hereafter.
25 female volunteers aged between 18 and 65, with the presence of skin blemishes caused by cellulite and localised adiposity, were selected according to the following criteria: good general state of health, absence of skin pathologies, not being under medication, commitment not to vary the normal daily routine, no medical history of atopy.
The samples were tested by uniformly applying them on “Glute SX Glute DJ (Femoris Posto SX Femoris Posto DX Femoris Ant. SX Femoris Ant. DX” every day at least once per day for the entire duration of the test.
At the time of inclusion in the study and during the subsequent checks after 15 days (T15), after 30 days (T30) and after 60 days (T60) of treatment the following instrumental measurements were taken: • plicometry (through a plicometer) • thigh circumference (through a measuring tape broken into millimetres) • contact thermography (through liquid crystal thermographic plates).

[2] = test system: skin blemishes deriving from cellulite and from localised adiposity; test: Overall evaluation of the efficiency of the cosmetic product adjuvating the reduction of skin blemishes; format: in vivo, female volunteers; conditions: versus just carnitine (II) and just hydroxy citric acid (III) in the same tests
Description: as §1, §2
Evaluation of the Efficiency of a Cosmetic Product Adjuvating the Reduction of the Skin Blemishes Deriving from Cellulite and from Localised Adiposity.
The present experimentation allows it to be evaluated whether the cosmetic product being studied carries out an action adjuvating the reduction of the skin blemishes deriving from cellulite and from localised adiposity. […]

[3] = T0 at inclusion, before treatment
[4] = after 15 days of daily gel application
[5] = after 30 days of daily gel application
[6] = after 60 days of daily gel application

carnitine hydroxycitrate [carnitine hydroxy citrate]
LEFT THIGH CIRCUMFERENCE 1/3 T0 [1, 3]: 55.0 and 52.8 (2×) and 51.7 and 64.0 and 55.7 (3×) and 51.0 and 47.6 and 49.0 and 52.5 and 56.6 and 58.1 and 55.2 and 47.1 and 47.0 and 48.5 and 52.1 and 50.2 and 52.7 and 49.7 and 60.6 and 48.2 and 59.2 | LEFT THIGH CIRCUMFERENCE 2/3 T0 [1, 3]: 49.9 and 51.3 and 49.0 and 58.4 and 52.4 and 46.9 and 46.2 and 47.9 (2×) and 50.4 and 52.9 and 55.9 (2×) and 56.7 and 48.9 and 46.7 and 52.6 and 44.0 and 45.4 (2×) and 52.0 and 51.4 and 48.2 and 44.9 and 54.6 | LEFT THIGH CIRCUMFERENCE 3/3 T0 [1, 3]: 41.2 (2×) and 39.7 (2×) and 48.0 and 37.6 (2×) and 36.4 (2×) and 37.7 and 38.4 and 39.8 and 37.8 and 43.1 and 43.2 and 37.4 and 38.7 (2×) and 37.9 and 47.2 and 44.2 and 38.6 and 43.8 and 36.3 and 46.4 | RIGHT THIGH CIRCUMFERENCE 1/3 T0 [1, 3]: 55.0 and 53.2 and 52.0 (2×) and 64.7 and 55.7 (2×) and 50.6 and 48.1 and 49.0 and 53.0 and 56.9 and 59.0 and 55.2 and 52.6 and 47.0 (2×) and 48.3 and 52.2 and 54.9 and 50.2 and 50.8 and 60.8 and 48.2 and 56.0 | RIGHT THIGH CIRCUMFERENCE 2/3 T0 [1, 3]: 49.9 and 51.3 and 49.0 and 58.4 and 52.5 and 47.2 and 46.5 and 47.9 (2×) and 50.4 and 52.9 and 55.9 and 56.8 and 49.2 and 46.7 and 52.6 and 44.0 and 45.4 (2×) and 52.0 and 51.4 and 48.2 and 45.3 and 55.6 and 54.6 | RIGHT THIGH CIRCUMFERENCE 3/3 T0 [1, 3]: 41.2 (2×) and 39.7 and 48.0 and 37.6 (2×) and 36.4 (2×) and 37.7 and 38.4 (2×) and 39.8 and 37.8 and 45.3 and 43.2 and 37.4 and 38.6 and 39.0 and 37.9 and 39.5 and 47.5 and 44.1 and 43.8 and 36.3 and 46.4 | LEFT THIGH CIRCUMFERENCE 1/3 T15 [1, 4]: 54.5 and 52.3 (2×) and 51.2 and 63.5 and 55.2 (3×) and 50.5 and 47.1 and 48.5 and 52.0 and 56.1 and 57.6 and 54.7 and 46.6 and 46.5 and 48.0 and 51.6 and 49.7 and 52.2 and 49.2 and 60.5 and 47.7 and 58.7 | LEFT THIGH CIRCUMFERENCE 2/3 T15 [1, 4]: 49.4 and 50.8 and 48.5 and 57.9 and 51.9 and 46.4 and 45.7 and 47.4 (2×) and 49.9 and 52.4 and 55.4 (2×) and 56.2 and 48.4 and 46.2 and 52.1 and 43.5 and 44.9 (2×) and 51.5 and 50.9 and 47.7 and 44.4 and 54.1 | LEFT THIGH CIRCUMFERENCE 3/3 T15 [1, 4]: 40.7 (2×) and 39.2 (2×) and 47.5 and 37.1 (2×) and 35.9 (2×) and 37.2 and 37.9 and 39.3 and 37.3 and 42.6 and 42.7 and 36.9 and 38.2 (2×) and 37.4 and 46.7 and 43.7 and 38.1 and 43.3 and 35.8 and 45.9 | RIGHT THIGH CIRCUMFERENCE 1/3 T15 [1, 4]: 55.9 and 52.8 and 53.2 and 65.3 and 55.3 and 49.4 and 48.4 and 49.8 and 53.3 and 57.6 and 59.2 and 54.3 and 50.5 and 48.1 and 56.3 and 48.0 (2×) and 48.8 and 51.8 and 54.5 and 51.0 and 50.8 and 50.4 and 60.4 and 59.8 | RIGHT THIGH CIRCUMFERENCE 2/3 T15 [1, 4]: 48.2 and 49.6 and 47.3 (2×) and 56.7 and 50.7 and 46.2 (2×) and 44.5 and 49.8 and 52.3 and 55.6 and 56.5 and 48.7 and 45.0 and 50.9 and 44.0 and 45.2 and 51.8 and 51.0 and 47.9 and 43.2 and 54.2 and 43.7 and 52.9 | RIGHT THIGH CIRCUMFERENCE 3/3 T15 [1, 4]: 40.6 and 40.8 and 37.7 (3×) and 49.2 and 38.5 (2×) and 35.3 and 37.2 and 37.1 and 39.7 and 44.5 and 42.3 and 36.6 and 39.2 and 35.5 and 38.7 and 39.4 and 43.2 and 37.5 and 36.4 and 43.9 and 35.8 and 45.5 | LEFT THIGH CIRCUMFERENCE 1/3 T30 [1, 5]: 53.4 and 51.2 (2×) and 50.1 and 62.4 and 54.2 and 49.2 and 46.0 and 47.4 and 50.9 and 55.0 and 56.5 and 53.6 and 45.5 and 54.1 and 45.4 and 46.9 and 50.5 and 54.0 and 49.7 and 52.3 and 48.1 and 59.0 and 46.6 and 57.6 | LEFT THIGH CIRCUMFERENCE 2/3 T30 [1, 5]: 48.5 and 49.9 and 47.6 and 57.0 and 51.0 and 45.5 and 44.8 and 46.5 (2×) and 49.0 and 51.5 and 54.5 (2×) and 55.3 and 47.5 and 45.3 and 51.2 and 42.6 and 44.0 (2×) and 50.6 and 50.0 and 46.8 and 43.5 and 53.2 | LEFT THIGH CIRCUMFERENCE 3/3 T30 [1, 5]: 39.5 (2×) and 38.0 (2×) and 46.3 and 35.9 (2×) and 34.7 (2×) and 36.0 and 36.7 and 38.1 (2×) and 36.1 and 41.4 and 41.5 and 35.7 and 37.0 (2×) and 36.2 and 45.5 and 43.6 and 42.1 and 34.6 and 44.7 | RIGHT THIGH CIRCUMFERENCE 1/3 T30 [1, 5]: 54.5 and 51.4 and 51.8 and 63.9 and 53.9 and 48.0 and 47.0 and 48.4 and 51.9 and 56.2 and 57.8 and 52.9 and 49.3 and 46.7 and 53.6 and 47.1 and 46.5 and 49.9 and 53.0 and 48.6 and 48.5 and 49.0 and 59.0 and 46.4 and 58.4 | RIGHT THIGH CIRCUMFERENCE 2/3 T30 [1, 5]: 48.2 and 48.0 and 46.8 and 56.4 and 50.3 and 46.5 and 44.3 and 44.6 (2×) and 49.6 and 51.7 and 55.4 and 56.0 and 48.6 and 45.0 and 50.0 and 44.0 and 50.6 and 51.0 and 47.0 and 47.8 and 43.0 and 53.9 and 44.2 and 51.3 | RIGHT THIGH CIRCUMFERENCE 3/3 T30 [1, 5]: 40.5 and 40.3 and 36.6 (2×) and 48.1 and 38.2 and 34.2 and 36.4 (2×) and 38.7 (2×) and 38.4 and 43.4 and 41.0 and 36.2 and 36.8 (2×) and 35.2 and 37.8 and 38.3 and 42.5 and 35.7 and 42.8 and 35.6 and 44.3 | LEFT THIGH CIRCUMFERENCE 1/3 T60 [1, 6]: 52.7 and 50.5 (2×) and 49.4 and 61.7 and 53.4 (2×) and 48.7 and 44.9 and 46.7 and 50.0 and 53.7 and 55.8 and 51.7 and 44.8 and 52.9 and 44.7 and 46.2 and 49.8 and 48.5 and 50.4 and 47.4 and 57.9 and 45.9 and 56.9 | LEFT THIGH CIRCUMFERENCE 2/3 T60 [1, 6]: 47.6 and 49.0 and 46.7 and 56.1 and 50.1 and 44.6 and 43.9 and 45.6 (2×) and 48.1 and 50.6 and 53.6 (2×) and 54.4 and 46.6 and 44.4 and 50.3 and 41.7 and 43.1 (2×) and 49.7 and 49.1 and 45.9 and 42.6 and 52.3 | LEFT THIGH CIRCUMFERENCE 3/3 T60 [1, 6]: 39.0 (2×) and 37.5 (2×) and 45.8 and 35.4 (2×) and 34.2 (2×) and 35.5 and 36.2 and 37.6 and 35.6 and 41.6 (2×) and 41.0 and 35.2 and 36.5 (2×) and 35.7 and 45.0 and 42.0 and 36.4 and 34.1 and 44.2 | RIGHT THIGH CIRCUMFERENCE 1/3 T60 [1, 6]: 53.8 and 50.7 and 50.0 and 62.4 and 53.2 and 47.3 and 46.0 and 47.2 and 51.0 and 55.5 and 56.7 and 52.0 and 48.4 and 44.7 and 52.8 and 45.0 and 45.9 and 49.3 and 51.8 and 48.1 and 48.5 and 48.3 and 57.8 and 45.7 and 56.5 | RIGHT THIGH CIRCUMFERENCE 2/3 T60 [1, 6]: 46.8 and 48.1 and 46.5 and 56.4 and 49.2 and 43.7 and 44.5 and 44.7 and 47.2 and 49.7 and 53.8 and 56.0 and 46.3 and 43.5 (2×) and 49.4 and 44.3 and 50.2 and 48.3 and 45.9 and 45.0 and 41.7 and 52.7 and 43.2 and 50.8 | RIGHT THIGH CIRCUMFERENCE 3/3 T60 [1, 6]: 38.2 (2×) and 39.3 and 36.2 (3×) and 47.7 and 37.0 (2×) and 33.8 and 35.7 and 35.6 and 43.0 and 40.8 and 34.8 and 37.7 and 34.2 and 37.2 and 37.9 and 41.7 and 36.0 and 33.7 and 42.4 and 34.3 and 44.0 | Comparison of the salt with the two reactants by themselves [2]: provides the best results
